The text below walks through data of patent US20230057133A1, “COMPOUND FOR THE TREATMENT AND PREVENTION OF CENTRAL NERVOUS SYSTEM DISORDERS” (ABAXYS THERAPEUTICS, priority 2019, published 2023).

Common to all, as to assay type: in vivo, zebrafish
Assay [1] concerns zebra fish larvae. Briefly: Model of hyperdopaminergic activity: apomorphine-induced locomotor activity of zebra fish larvae. As for the experimental part: (§1) Compound was tested in zebrafish paradigms reaction to environmental stimuli, epileptic activity and dopaminergic hyperactivity. Zebrafish used in present studies were raised in regular conditions of housing in tanks of appropriate size and circadian rhythm (12:12 photoperiod, light/darkness). The aqueous medium used for the maintenance and experimental conditions was Instant Ocean®. The water maintained between at 27° C. or 29° C., pH between 7.2-7.5 and a conductivity value between 480-520 μS. Zebrafish embryos were placed in sterile petri dishes before being transferred to plates after the hatching.
(§2) For experimental studies, larvae of up to 5 dpf were placed in flat bottom 96-well plates. At the treatment time, the medium was replaced by 150 μL fresh medium. Pentetrazole (PTZ) and/or Cmpd1 (treatment), or vehicle (control) were added (up to 210-240 μL) to the wells followed by video recording.
(§3) Locomotion of larvae was recorded using Noldus daniovisio system equipped with infrared light detection. Ethovision XT15 software controlled the temperature of plate (28° C.) and chamber light conditions. The experimental recording was done with a cycle of light period (20 min) followed by dark period ([…]). After recording data were analysed using Ethovision XT15 software package. The distance moved by larvae was calculated for each period of 2 min recording (FIGS. 1 to 6 and 10) or as accumulated value of distance at 2 min (initiation), at 4 min at 10 min and at 20 min (switch to darkness) or at 60 min (end of recording) (FIGS. 7 and 8).
(§4) All compounds were dissolved in medium or medium containing DMSO at indicated concentrations.
The same methods as disclosed in Example 1 ware carried out for Example 2, except that the pentetrazole was replaced by apomorphine (APO).

For assay [2], the system named is zebra fish larvae. Briefly: Model of epileptic activity: pentetrazole-induced locomotor activity of zebra fish larvae. The procedure: as §1, §2, §3, §4
The subject of assay [3] is zebra fish larvae. In words: Locomotion of zebra fish larvae treated with compound alone, light period followed by dark period. Particulars: Cmpd1 100 μM alone versus vehicle; FIGS. 5 and 10. As for the experimental part:
as §1, §2
Locomotion of larvae was recorded using Noldus daniovisio system equipped with infrared light detection. […] After recording data were analysed using Ethovision XT15 software package. The distance moved by larvae was calculated for each period of 2 min recording (FIGS. 1 to 6 and 10) or as accumulated value of distance at 2 min (initiation), at 4 min at 10 min and at 20 min (switch to darkness) or at 60 min (end of recording) (FIGS. 7 and 8). […]

Regarding `CN1CCc2cccc3c2[C@H]1Cc1ccc(O)c(O)c1-3` [apomorphine, reference compound], the “locomotor activity (distance moved) versus vehicle” value in the assay on zebra fish larvae [1] (apomorphine alone, 75 μM (FIG. 3) or 55 μM (FIG. 8), light conditions) is “clear increase of locomotor activity in light conditions”.
With `C1CCc2nnnn2CC1` [pentetrazole, reference compound], the “locomotor activity (distance moved) versus vehicle” value in the assay on zebra fish larvae [2] (pentetrazole 10 mM alone, larvae up to 5 dpf, light 20 min then dark 45 min, FIGS. 1, 2, 6) is “clear increase of locomotor activity in both light and dark conditions”.
Regarding `CCOC(=O)C1CCN(C(=O)[C@H](C)N(c2ccc(C)cc2)S(C)(=O)=O)CC1` [Cmpd1, ethyl 1-(N-(methylsulfonyl)-N-(p-tolyl)alanyl)piperidine-4-carboxylate], the “locomotion level compared with vehicle treated zebra fishes” value with zebra fish larvae [2] (Cmpd1 100 μM, FIG. 2 open circles and FIG. 7) is recorded as “stabilizes locomotion to levels close to normal locomotion”. The “locomotor activity induced by pentetrazole alone (distance moved)” value in the assay on zebra fish larvae [2] (co-treatment Cmpd1 100 μM + pentetrazole 10 mM, FIG. 2 and FIG. 7) was “decrease of the locomotor activity”. Further, in the assay with zebra fish larvae [2] (pentetrazole model, Cmpd1 100 μM), the “conclusion of the epileptic activity model” value is “anti-epileptic activity”. The “locomotion level compared with vehicle treated zebra fish” value in the assay with zebra fish larvae [1] (FIG. 5 and FIGS. 9 and 10) is “stabilizes locomotion to levels close to normal locomotion”. The “conclusion of the hyperdopaminergic activity model” value with zebra fish larvae [1] (apomorphine model) is “stabilizer of the hyperdopaminergic activity”. Besides, the “locomotor activity induced by apomorphine alone (distance moved)” value in the assay with zebra fish larvae [1] (co-treatment Cmpd1 100 μM + apomorphine 55 μM, FIG. 9) is on record as “decrease of the locomotor activity”; in the assay on zebra fish larvae [1] (co-treatment Cmpd1 100 μM + apomorphine 75 μM, FIG. 4), “decrease of the locomotor activity”. Besides, the “apomorphine-induced locomotion activity, time course” value in the assay with zebra fish larvae [1] (first period of the assay, up to ~20 min, FIG. 9) is reported as “reduces apomorphine-induced locomotion activity strongly”. In addition, the “locomotion activity and peak due to change to dark condition” value in the assay with zebra fish larvae [3] was “maintains a low level of locomotion activity suppressing also the peak due to change to dark condition”.
